Where two headings read alike, the source gives them in different places.
Key:
IGF-1R kinase = IGF-1R kinase (Homo sapiens, UniProt P08069); experiment: IGF-1R kinase inhibition; assay type: biochemical; conditions: IGF-1R kinase inhibitor potency, approx.
A549 cells = experiment: Cell-Titer Glo cell growth inhibition; assay type: cell-based, human; conditions: NSCLC cell line A549
Experimental: (§1) The NSCLC lines with IGF-1R, H292, H358, H322, H441, A549, Calu6, H460, H1703 and SW1573 were cultured in the appropriate ATCC recommended supplemented media. Cell extracts were prepared by detergent lysis ((50 mM Tris-HCl, pH8, 150 mM NaCl, 1% NP-40, 0.5% NaDeoxycholate, 0.1% SDS) containing protease and phosphatase inhibitors. The soluble protein concentration was determined by micro-BSA assay (Pierce, Rockford Ill.).
(§2) IGF-1R inhibitor Compound 66 (i.e. 3-(3-Azetidin-1-ylmethyl-cyclobutyl)-1-(2-phenyl-quinolin-7-yl)-imidazo[1,5-a]pyrazin-8-ylamine; see structure below) stock concentration was 10 mM in 100% DMSO (dimethyl sulfoxide). Serial dilutions (1:3 or 1:4) were used to establish the 50% inhibitory dose of IGF-1R inhibitor. Before dosing, inhibitor was diluted in 100% DMSO, and then added to the cells at desired final concentrations in duplicates. The final DMSO concentration was between 0.3-0.5%. Compound 66 was synthesized by the methods described in published International patent application number WO 2005/097800 A1.
(§3) For measuring cell viability, Cell-Titer Glo assay was used, which is available as a kit from Promega. The basis of the assay is a luminescent quantitation of ATP present in a cell culture plate well. In essence, the greater the number of viable cells in the well, the greater the level of ATP present. The assay utilizes a substrate that binds ATP to produce a luminescent signal, which can be read on a luminometer. Unless otherwise noted, the manufacturer's instructions were followed exactly. Briefly, on Day 1, cells were plated in 120 μl of 10% serum-containing growth media at a density of 4000 cells/well in a white polystyrene 96 well assay plate. On day 2, cells were treated with 15 μl of 10× concentration of the IGF-1R inhibitor (e.g. Compound 66, PQIP) or DMSO alone for a final well volume of 150 μl. After 72 h incubation with the inhibitor, the cells were assayed. Results were calculated as a fraction of the DMSO controlled cells.

H292 cells = experiment: Cell-Titer Glo cell growth inhibition; assay type: cell-based, human; conditions: NSCLC cell line H292
Experimental: as §1, §2, §3

H358 cells = experiment: Cell-Titer Glo cell growth inhibition; assay type: cell-based, human; conditions: NSCLC cell line H358
Experimental: as §1, §2, §3

H441 cells = experiment: Cell-Titer Glo cell growth inhibition; assay type: cell-based, human; conditions: NSCLC cell line H441
Experimental: as §1, §2, §3

SW1573 cells = experiment: Cell-Titer Glo cell growth inhibition; assay type: cell-based, human
Experimental: as §1, §2, §3

H460 cells = experiment: Cell-Titer Glo cell growth inhibition; assay type: cell-based, human
Experimental: as §1
as §2, with “Compound 66 was synthesized by the methods described in published International patent application number WO 2005/097800 A1.” left out
(§4) For measuring cell viability, Cell-Titer Glo assay was used, which is available as a kit from Promega. The basis of the assay is a luminescent quantitation of ATP present in a cell culture plate well. […] The assay utilizes a substrate that binds ATP to produce a luminescent signal, which can be read on a luminometer. […] Results were calculated as a fraction of the DMSO controlled cells.

[1] = test system: panel comprised of 28 tumor cell lines; experiment: Cell-Titer Glo cell growth inhibition, tumor cell line panel; assay type: cell-based, human; conditions: for inhibition at 3 µM: Homo sapiens, 3 μM PQIP, 28 tumor cell lines
Experimental: as §1
(§5) The cell lines HCT-116, HT-29, GEO, Colo205, SW480, SW620, BxPC3, HPAC, CFPAC-1, MiaPaca-2, Panc1, A1165, MDA-MB-231, MDA-MB-435, DU4475, and MDA-MB468 were routinely cultured in media as prescribed by the ATCC containing 10% FCS. With the exception of GEO tumor cells (obtained from Roswell Park Cancer Institute (RPCI)), and A1165 (obtained from FCRF (NCI-Frederick Cancer Research Facility)) all tumor cells were obtained from the ATCC.
IGF-1R inhibitor Compound PQIP: Synthesis of PQIP: cis-3-[3-(4-Methyl-piperazin-1-yl)-cyclobutyl]1-(2-phenyl-quinolin-7-yl)-imidazo[1,5-a]pyrazin-8-ylamine (PQIP; see structure below), is a 1,3-disubstituted-8-amino-imidazopyrazine derivative synthesized by the methods described in patent application number WO 2005/097800 A1. Compound identity and purity (>99%) was verified by ^1H and ^13C nuclear magnetic resonance, mass spectrometry (MS), and high-performance liquid chromatography using Bruker Advance 400, WatersMicromass ZQ, and Waters LC Module I Plus instruments, respectively, as well as by elemental analysis. PQIP was dissolved in DMSO at 10 mmol/L for use in biochemical or cellular assays done in vitro. […]
as §4

DLD-1 cells = experiment: Cell-Titer Glo cell growth inhibition; assay type: cell-based, human
Experimental: as §3, with “IGF-1R inhibitor Compound PQIP: […] PQIP was dissolved in DMSO at 10 mmol/L for use in biochemical or cellular assays done in vitro. For in vivo studies, PQIP was dissolved in 25 mmol/L tartaric acid at an appropriate concentration to deliver the desired dose at 20 mL/kg by oral gavage. For” for “For”

RKO cells = experiment: Cell-Titer Glo cell growth inhibition; assay type: cell-based, human
Experimental: as §3, with “IGF-1R inhibitor Compound PQIP: […] PQIP was dissolved in DMSO at 10 mmol/L for use in biochemical or cellular assays done in vitro. For in vivo studies, PQIP was dissolved in 25 mmol/L tartaric acid at an appropriate concentration to deliver the desired dose at 20 mL/kg by oral gavage. For” for “For”

HCT-116 cells = experiment: Cell-Titer Glo cell growth inhibition; assay type: cell-based; conditions: Homo sapiens, 3 μM PQIP, activating mutation in PI3K
Description: as §5
IGF-1R inhibitor Compound PQIP: Synthesis of PQIP: cis-3-[3-(4-Methyl-piperazin-1-yl)-cyclobutyl]1-(2-phenyl-quinolin-7-yl)-imidazo[1,5-a]pyrazin-8-ylamine (PQIP; see structure below), is a 1,3-disubstituted-8-amino-imidazopyrazine derivative synthesized by the methods described in patent application number WO 2005/097800 A1. […]
as §4

MCF-7 cells = experiment: Cell-Titer Glo cell growth inhibition; assay type: cell-based; conditions: Homo sapiens, MCF7, 3 μM PQIP, activating mutation in PI3K
Experimental: as §3, with “The” for “For measuring cell viability, Cell-Titer Glo assay was used, which is available as a kit from Promega. The”, “On day 2, cells were treated with 15 μl of 10× concentration of the IGF-1R inhibitor (e.g. Compound 66, PQIP) or DMSO alone for a final well volume of 150 μl.” left out

BxPC3 cells = experiment: Cell-Titer Glo cell growth inhibition; assay type: cell-based, human; conditions: BxPC3, growth inhibition by an IGF-1R kinase inhibitor
Description: as §5
(§6) IGF-1R inhibitor Compound PQIP: Synthesis of PQIP: cis-3-[3-(4-Methyl-piperazin-1-yl)-cyclobutyl]1-(2-phenyl-quinolin-7-yl)-imidazo[1,5-a]pyrazin-8-ylamine (PQIP; see structure below), is a 1,3-disubstituted-8-amino-imidazopyrazine derivative synthesized by the methods described in patent application number WO 2005/097800 A1. Compound identity and purity (>99%) was verified by ^1H and ^13C nuclear magnetic resonance, mass spectrometry (MS), and high-performance liquid chromatography using Bruker Advance 400, WatersMicromass ZQ, and Waters LC Module I Plus instruments, respectively, as well as by elemental analysis. PQIP was dissolved in DMSO at 10 mmol/L for use in biochemical or cellular assays done in vitro. For in vivo studies, PQIP was dissolved in 25 mmol/L tartaric acid at an appropriate concentration to deliver the desired dose at 20 mL/kg by oral gavage.
as §3

CFPAC cells = experiment: Cell-Titer Glo cell growth inhibition; assay type: cell-based, human; conditions: growth inhibition by an IGF-1R kinase inhibitor
Description: as §5, §6, §3

Colo205 cells = experiment: Cell-Titer Glo cell growth inhibition; assay type: cell-based, human; conditions: Colo205, growth inhibition by an IGF-1R kinase inhibitor
Description: as §5, §6, §3

GEO cells = experiment: Cell-Titer Glo cell growth inhibition; assay type: cell-based, human; conditions: growth inhibition by an IGF-1R kinase inhibitor
Description: as §5, §6, §3

HPAC cells = experiment: Cell-Titer Glo cell growth inhibition; assay type: cell-based, human; conditions: growth inhibition by an IGF-1R kinase inhibitor
Description: as §5, §6, §3

HT-29 cells = experiment: Cell-Titer Glo cell growth inhibition; assay type: cell-based, human; conditions: HT-29, growth inhibition by an IGF-1R kinase inhibitor
Description: as §5, §6, §3

MiaPaca-2 cells = experiment: Cell-Titer Glo cell growth inhibition; assay type: cell-based, human; conditions: MiaPaca-2, growth inhibition by an IGF-1R kinase inhibitor
Description: as §5, §6, §3

Panc1 cells = experiment: Cell-Titer Glo cell growth inhibition; assay type: cell-based, human; conditions: Panc1, growth inhibition by an IGF-1R kinase inhibitor
Description: as §5, §6, §3

Sequence of IGF-1R kinase (P08069 31-1367): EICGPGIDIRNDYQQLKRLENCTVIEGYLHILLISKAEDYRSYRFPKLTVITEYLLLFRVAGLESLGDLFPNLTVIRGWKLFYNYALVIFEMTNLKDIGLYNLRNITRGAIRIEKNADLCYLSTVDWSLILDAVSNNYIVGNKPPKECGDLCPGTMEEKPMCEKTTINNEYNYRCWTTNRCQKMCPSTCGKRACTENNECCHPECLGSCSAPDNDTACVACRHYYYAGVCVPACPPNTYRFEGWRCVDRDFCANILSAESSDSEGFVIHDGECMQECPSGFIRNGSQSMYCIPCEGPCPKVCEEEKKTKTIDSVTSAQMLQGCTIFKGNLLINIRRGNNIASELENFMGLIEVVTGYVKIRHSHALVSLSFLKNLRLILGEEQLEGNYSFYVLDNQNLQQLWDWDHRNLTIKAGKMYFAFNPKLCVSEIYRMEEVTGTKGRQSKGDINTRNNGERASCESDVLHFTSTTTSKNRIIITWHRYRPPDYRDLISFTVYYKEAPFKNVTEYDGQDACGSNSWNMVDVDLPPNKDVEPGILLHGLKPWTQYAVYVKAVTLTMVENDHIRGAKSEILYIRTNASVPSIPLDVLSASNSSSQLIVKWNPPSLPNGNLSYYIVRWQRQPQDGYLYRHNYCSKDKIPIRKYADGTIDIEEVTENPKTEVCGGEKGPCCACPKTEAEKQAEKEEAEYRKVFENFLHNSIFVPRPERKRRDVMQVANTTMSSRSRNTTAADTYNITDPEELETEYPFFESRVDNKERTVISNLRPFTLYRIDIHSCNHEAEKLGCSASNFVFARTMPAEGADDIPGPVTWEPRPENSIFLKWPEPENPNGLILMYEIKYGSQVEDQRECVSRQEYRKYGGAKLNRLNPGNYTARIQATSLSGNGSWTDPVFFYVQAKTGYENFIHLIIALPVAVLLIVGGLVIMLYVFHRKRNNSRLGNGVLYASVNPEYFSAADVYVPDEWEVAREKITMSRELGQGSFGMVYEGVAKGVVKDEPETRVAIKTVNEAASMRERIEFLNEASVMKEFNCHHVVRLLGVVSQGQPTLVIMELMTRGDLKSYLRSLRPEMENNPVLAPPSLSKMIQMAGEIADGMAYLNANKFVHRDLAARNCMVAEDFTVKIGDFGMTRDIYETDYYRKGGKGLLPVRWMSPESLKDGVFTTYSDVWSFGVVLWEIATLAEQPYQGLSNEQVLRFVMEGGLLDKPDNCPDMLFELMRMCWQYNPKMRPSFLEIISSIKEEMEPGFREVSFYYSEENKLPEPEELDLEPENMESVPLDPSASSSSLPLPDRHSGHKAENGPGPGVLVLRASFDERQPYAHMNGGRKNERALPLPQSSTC

In the case of `Nc1nccn2c1c(-c1ccc3ccc(-c4ccccc4)nc3c1)nc2[C@H]1C[C@@H](CN2CCC2)C1` [Compound 66, 3-(3-Azetidin-1-ylmethyl-cyclobutyl)-1-(2-phenyl-quinolin-7-yl)-imidazo[1,5-a]pyrazin-8-ylamine], the IC50 (IGF-1R kinase) is reported as roughly 50 nM, the “sensitivity to Compound 66-mediated growth inhibition” value (A549 cells) is reported as “intermediate sensitivity” and the “sensitivity to Compound 66-mediated growth inhibition” value (H292 cells) is reported as “sensitive”. For the same compound, the “sensitivity to Compound 66-mediated growth inhibition” value (H358 cells) was “sensitive”, the “sensitivity to Compound 66-mediated growth inhibition” value (H441 cells) was “sensitive” and the inhibition at 10 µM (SW1573 cells; Homo sapiens, SW1573 cells, 10 μM inhibitor, read-out: growth inhibition in vitro) was less than 10%. The “sensitivity to Compound 66-mediated growth inhibition” value (SW1573 cells; NSCLC cell line SW1573) was “relatively insensitive” and the “sensitivity to Compound 66-mediated growth inhibition” value (H460 cells; NSCLC cell line H460) was “relatively insensitive”.
With `CN1CCN([C@H]2C[C@@H](c3nc(-c4ccc5ccc(-c6ccccc6)nc5c4)c4c(N)nccn43)C2)CC1` [PQIP, cis-3-[3-(4-Methyl-piperazin-1-yl)-cyclobutyl]1-(2-phenyl-quinolin-7-yl)-imidazo[1,5-a]pyrazin-8-ylamine] the inhibition at 3 µM (H460 cells; Homo sapiens, NCI-H460 cells, 3 μM PQIP, activating mutation in PI3K) was less than 20%, the inhibition at 3 µM ([1]; read-out: median growth inhibition for the panel) was 37% and the inhibition at 3 µM ([1]; 72 hours after dosing, read-out: % maximal growth inhibition, range of sensitivities over the panel) was 2 to 72%. For the same compound, the “effects of varying concentrations on cell proliferation” value ([1]; all cell lines, data not shown) was “dose-dependent”, the “sensitivity to IGF-1R inhibition” value (DLD-1 cells; DLD1, growth inhibition by an IGF-1R kinase inhibitor) was “relatively sensitive” and the inhibition at 3 µM (DLD-1 cells; Homo sapiens, DLD-1 cells, 3 μM PQIP, activating mutation in PI3K) was less than 20%. For the same compound, the inhibition at 3 µM (RKO cells; Homo sapiens, RKO cells, 3 μM PQIP, activating mutation in PI3K) was less than 20%, the “sensitivity to IGF-1R inhibition” value (RKO cells; RKO, growth inhibition by an IGF-1R kinase inhibitor) was “relatively insensitive” and the inhibition at 3 µM (HCT-116 cells) was greater than 70%. For the same compound, the inhibition at 3 µM (MCF-7 cells) was greater than 70%, the “sensitivity to IGF-1R inhibition” value (BxPC3 cells) was “relatively sensitive” and the “sensitivity to IGF-1R inhibition” value (CFPAC cells) was “relatively sensitive”. The “sensitivity to IGF-1R inhibition” value (Colo205 cells) was “relatively sensitive”, the “sensitivity to IGF-1R inhibition” value (GEO cells) was “relatively sensitive” and the “sensitivity to IGF-1R inhibition” value (HPAC cells) was “relatively sensitive”. For the same compound, the “sensitivity to IGF-1R inhibition” value (HT-29 cells) was “relatively sensitive”, the “sensitivity to IGF-1R inhibition” value (MiaPaca-2 cells) was “relatively insensitive” and the “sensitivity to IGF-1R inhibition” value (Panc1 cells) was “relatively insensitive”.
